pKi: −log10 of the molar value.
Molecular target: T1, human histamine H4 receptor (Homo sapiens, UniProt Q9H3N8)
T1 construct: expressed in transfected cells; host or cells: SK-N-MC cells or COS7 cells, transient transfection with pH4R; cell membranes
Assay: Binding Assay on Recombinant Human Histamine H4 Receptor
Details: competition binding with 3H-histamine (5 nM; KD 5 nM), membranes of SK-N-MC or COS7 cells expressing human H4 receptor; average of results; > = highest value tested
Protocol: Biological Methods: Binding Assay on Recombinant Human Histamine H4 Receptor
SK-N-MC cells or COS7 cells were transiently transfected with pH4R and grown in 150 cm^2 tissue culture dishes. Cells were washed with saline solution, scraped with a cell scraper and collected by centrifugation (1000 rpm, 5 min). Cell membranes were prepared by homogenization of the cell pellet in 20 mM Tris-HCl with a polytron tissue homogenizer for 10 sec at high speed. Homogenate was centrifuged at 1000 rpm for 5 min at 4° C. The supernatant was then collected and centrifuged at 20,000×g for 25 min at 4° C. The final pellet was resuspended in 50 mM Tris-HCl. Cell membranes were incubated with ^3H-histamine (5-70 nM) in the presence or absence of excess histamine (10,000 nM). Incubation occurred at room temperature for […]. Membranes were harvested by rapid filtration over Whatman GF/C filters and washed 4 times with ice-cold 50 mM Tris HCl. Filters were then dried, mixed with scintillant and counted for radioactivity. SK-N-MC or COS7 cells expressing human histamine H4 receptor were used to measure the affinity of binding of other compounds and their ability to displace ^3H-ligand binding by incubating the above-described reaction in the presence of various concentrations of inhibitor or compound to be tested. For competition binding studies using ^3H-histamine, Ki values were calculated, based on an experimentally determined KD value of 5 nM and a ligand concentration of 5 nM, according to Y.-C.

T1 sequence (Q9H3N8 whole entry): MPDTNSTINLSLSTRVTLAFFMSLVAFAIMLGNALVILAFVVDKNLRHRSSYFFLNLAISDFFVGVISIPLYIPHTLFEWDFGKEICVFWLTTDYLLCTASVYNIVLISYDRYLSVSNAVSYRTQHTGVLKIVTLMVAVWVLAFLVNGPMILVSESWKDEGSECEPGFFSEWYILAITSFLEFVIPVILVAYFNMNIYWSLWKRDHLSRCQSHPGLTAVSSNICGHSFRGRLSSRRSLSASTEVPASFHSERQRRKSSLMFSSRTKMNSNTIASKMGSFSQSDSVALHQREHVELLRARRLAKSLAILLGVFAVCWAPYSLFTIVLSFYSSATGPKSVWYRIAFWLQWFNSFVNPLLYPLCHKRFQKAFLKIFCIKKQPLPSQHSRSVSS

Q: With `Cc1c(F)ccc2[nH]c(-c3cccc4c3c(Cl)cn4CCCCC3CCN(C)CC3)nc12` [Example 31, 2-{3-Chloro-1-[4-(1-methyl-piperidin-4-yl)-butyl]-1H-indol-4-yl}-5-fluoro-4-methyl-1H-benzoimidazole] as the molecule, how does the pKi read?
A: Its pKi is 6.93.

Q: How did the pKi turn out when `c1ccc2cc3[nH]c(-c4cccc5c4ccn5CCCCC4CCNCC4)nc3cc2c1` [Example 127, 2-[1-(4-Piperidin-4-yl-butyl)-1H-indol-4-yl]-1H-naphtho[2,3-d]imidazole] was run?
A: Its pKi is 5.68.

Q: How did the pKi turn out when `Fc1ccc2[nH]c(-c3ccc4ncn(CCCCC5CCNCC5)c4c3)nc2c1` [Example 124, 5-Fluoro-3′-(4-piperidin-4-yl-butyl)-1H,3′H-[2,5′]bibenzoimidazolyl] was run?
A: The pKi was under 5.00.

Q: `Cc1ccc2[nH]c(-c3ccc4ncn(CCCCC5CCNCC5)c4c3)nc2c1C` [Example 123, 4,5-Dimethyl-3′-(4-piperidin-4-yl-butyl)-1H,3′H-[2,5′]bibenzoimidazolyl] was tested. Which pKi did it give?
A: The pKi was 5.48.

Q: `CN1CCC(CCCCn2ccc3c(-c4nc5cc(C(C)(C)C)ccc5[nH]4)cccc32)CC1` [Example 24, 5-tert-Butyl-2-{1-[4-(1-methyl-piperidin-4-yl)-butyl]-1H-indol-4-yl}-1H-benzoimidazole] was tested. Which pKi did it give?
A: Its pKi is 7.40.

Q: How did the pKi turn out when `Fc1ccc2[nH]c(-c3cccc4c3ccn4CCCCC3CCNCC3)nc2c1F` [Example 110, 4,5-Difluoro-2-[1-(4-piperidin-4-yl-butyl)-1H-indol-4-yl]-1H-benzoimidazole] was run?
A: The pKi was 5.48.

Q: `Cc1c(F)ccc2[nH]c(-c3cnc4c(ccn4CCCC4CCNCC4)c3)nc12` [Example 91, 5-Fluoro-4-methyl-2-[1-(3-piperidin-4-yl-propyl)-1H-pyrrolo[2,3-b]pyridin-5-yl]-1H-benzoimidazole] was tested. Which pKi did it give?
A: Its pKi is 6.12.

Q: With `Clc1ccc2[nH]c(-c3ccc4c(c3)CCN4CCCC3CCNCC3)nc2c1` [Example 94, 5-Chloro-2-[1-(3-piperidin-4-yl-propyl)-2,3-dihydro-1H-indol-5-yl]-1H-benzoimidazole] as the molecule, how does the pKi read?
A: Its pKi is 6.22.

Q: With `CN1CCC(CCCCn2cc(Cl)c3c(-c4nc5cc(F)c(F)cc5[nH]4)cccc32)CC1` [Example 32, 2-{3-Chloro-1-[4-(1-methyl-piperidin-4-yl)-butyl]-1H-indol-4-yl}-5,6-difluoro-1H-benzoimidazole] as the molecule, how does the pKi read?
A: The pKi was 6.22.

Q: How did the pKi turn out when `Cc1cc(Cl)cc2[nH]c(-c3ccc4c(c3)c(Cl)cn4CCCC3CCN(C)CC3)nc12` [Example 29, 6-Chloro-2-{3-chloro-1-[3-(1-methyl-piperidin-4-yl)-propyl]-1H-indol-5-yl}-4-methyl-1H-benzoimidazole] was run?
A: The pKi was 5.78.

Q: With `CN1CCC(CCCCn2ccc3c(-c4nc5ccc6ccccc6c5[nH]4)cccc32)CC1` [Example 71, 2-{1-[4-(1-Methyl-piperidin-4-yl)-butyl]-1H-indol-4-yl}-1H-naphtho[1,2-d]imidazole] as the molecule, how does the pKi read?
A: Its pKi is 6.10.

Q: With `Cc1cc(F)cc2[nH]c(-c3ccc4c(ncn4CCCC4CCNCC4)c3C)nc12` [Example 112, 6-Fluoro-4,4′-dimethyl-1′-(3-piperidin-4-yl-propyl)-1H,1′H-[2,5′]bibenzoimidazolyl] as the molecule, how does the pKi read?
A: Its pKi is 6.60.

Q: With `Cc1ccc2[nH]c(-c3cccc4c3ccn4CCCCC3CCNCC3)nc2c1C` [Example 106, 6,7-Dimethyl-2-[1-(4-piperidin-4-yl-butyl)-1H-indol-4-yl]-1H-benzoimidazole] as the molecule, how does the pKi read?
A: The pKi was 5.58.

Q: With `Cc1ccc2[nH]c(-c3ccc4c(c3C)CCN4CCCC3CCN(C)CC3)nc2c1C` [Example 2, 4,5-Dimethyl-2-{4-methyl-1-[3-(1-methyl-piperidin-4-yl)-propyl]-2,3-dihydro-1H-indol-5-yl}-1H-benzoimidazole] as the molecule, how does the pKi read?
A: Its pKi is 7.82.

Q: With `Cc1c(F)ccc2[nH]c(-c3cc4ccn(CCCC5CCN(C)CC5)c4cc3Cl)nc12` [Example 50, 2-{6-Chloro-1-[3-(1-methyl-piperidin-4-yl)-propyl]-1H-indol-5-yl}-5-fluoro-4-methyl-1H-benzoimidazole] as the molecule, how does the pKi read?
A: Its pKi is 5.48.

Q: With `Cc1cccc2[nH]c(-c3cccc4c3ccn4CCCCC3CCN(C)CC3)nc12` [Example 23, 4-Methyl-2-{1-[4-(1-methyl-piperidin-4-yl)-butyl]-1H-indol-4-yl}-1H-benzoimidazole] as the molecule, how does the pKi read?
A: Its pKi is 7.01.

Q: `Cc1cc(Cl)cc2[nH]c(-c3cccc4c3ccn4CCCCC3CCNCC3)nc12` [Example 104, 6-Chloro-4-methyl-2-[1-(4-piperidin-4-yl-butyl)-1H-indol-4-yl]-1H-benzoimidazole] was tested. Which pKi did it give?
A: The pKi was 5.63.

Q: With `Cc1cccc2[nH]c(-c3ccc4c(c3)ncn4CCCCC3CCN(C)CC3)nc12` [Example 42, 4-Methyl-1′-[4-(1-methyl-piperidin-4-yl)-butyl]-1H,1′H-[2.5′]bibenzoimidazolyl] as the molecule, how does the pKi read?
A: The pKi was 5.70.

Q: How did the pKi turn out when `Cc1ccc2[nH]c(-c3ccc4c(ccn4CCCN4CCNCC4)c3)nc2c1C` [Example 62, 4,5-Dimethyl-2-[1-(3-piperazin-1-yl-propyl)-1H-indol-5-yl]-1H-benzoimidazole] was run?
A: Its pKi is 5.88.

Q: `Cc1c(C)n(CCCC2CCNCC2)c2ccc(-c3nc4c(C)c(F)ccc4[nH]3)cc12` [Example 90, 2-[2,3-Dimethyl-1-(3-piperidin-4-yl-propyl)-1H-indol-5-yl]-5-fluoro-4-methyl-1H-benzoimidazole] was tested. Which pKi did it give?
A: The pKi was 5.70.

Q: How did the pKi turn out when `O=C(c1ccccc1)c1ccc2[nH]c(-c3cccc4c3ccn4CCCCC3CCNCC3)nc2c1` [Example 77, Phenyl-{2-[1-(4-piperidin-4-yl-butyl)-1H-indol-4-yl]-1H-benzoimidazol-5-yl}-methanone] was run?
A: The pKi was 5.78.

Q: `Cc1cccc2[nH]c(-c3ccc4c(c3)CCN4CCCC3CCNCC3)nc12` [Example 95, 4-Methyl-2-[1-(3-piperidin-4-yl-propyl)-2,3-dihydro-1H-indol-5-yl]-1H-benzoimidazole] was tested. Which pKi did it give?
A: Its pKi is 6.41.

Q: `CN1CCC(CCCCn2ccc3c(-c4nc5c(F)cc(F)cc5[nH]4)cccc32)CC1` [Example 70, 4,6-Difluoro-2-{1-[4-(1-methyl-piperidin-4-yl)-butyl]-1H-indol-4-yl}-1H-benzoimidazole] was tested. Which pKi did it give?
A: The pKi was 6.99.

Q: How did the pKi turn out when `Clc1ccc2nc(-c3cccc4c3ccn4CCCCC3CCNCC3)[nH]c2c1` [Example 140, 6-Chloro-2-[1-(4-piperidin-4-yl-butyl)-1H-indol-4-yl]-1H-benzoimidazole] was run?
A: The pKi was 5.48.

Q: With `Cc1ccc2[nH]c(-c3ccc4c(c3)ncn4CCCCC3CCNCC3)nc2c1C` [Example 118] as the molecule, how does the pKi read?
A: The pKi was 5.52.

Q: With `Cc1nc(-c2ccc3c(ncn3CCCC3CCN(C)CC3)c2C)[nH]c1-c1ccc(C(F)(F)F)cc1` [Example 142, 4-Methyl-1-[3-(1-methyl-piperidin-4-yl)-propyl]-5-[4-methyl-5-(4-trifluoromethyl-phenyl)-1H-imidazol-2-yl]-1H-benzoimidazole] as the molecule, how does the pKi read?
A: Its pKi is 8.15.

Q: How did the pKi turn out when `Cc1cc(C)c2nc(-c3ccc4c(c3Cl)CCN4CCCC3CCN(C)CC3)[nH]c2c1` [Example 3, 2-{4-Chloro-1-[3-(1-methyl-piperidin-4-yl)-propyl]-2,3-dihydro-1H-indol-5-yl}-4,6-dimethyl-1H-benzoimidazole] was run?
A: Its pKi is 7.48.

Q: With `Cc1ccc2[nH]c(-c3ccc4c(ncn4CCCC4CCNCC4)c3C)nc2c1C` [Example 138, 4,5,4′-Trimethyl-1′-(3-piperidin-4-yl-propyl)-1H,1′H-[2,5′]bibenzoimidazolyl] as the molecule, how does the pKi read?
A: Its pKi is 6.37.

Q: How did the pKi turn out when `Cc1c(F)ccc2[nH]c(-c3cccc4c3ccn4CCCCC3CCNCC3)nc12` [Example 35, 5-Fluoro-4-methyl-2-[1-(4-piperidin-4-yl-butyl)-1H-indol-4-yl]-1H-benzoimidazole] was run?
A: The pKi was 6.17.

Q: How did the pKi turn out when `Cc1cccc2[nH]c(-c3ccc4ncn(CCCCC5CCN(C)CC5)c4c3)nc12` [Example 43, 4-Methyl-3′-[4-(1-methyl-piperidin-4-yl)-butyl]-1H,3′H-[2,5′]bibenzoimidazolyl] was run?
A: The pKi was 5.78.

Q: With `Cc1c(-c2nc3c(C)c(F)ccc3[nH]2)ccc2c1ccn2CCCC1CCN(C)CC1` [Example 7, 5-Fluoro-4-methyl-2-{4-methyl-1-[3-(1-methyl-piperidin-4-yl)-propyl]-1H-indol-5-yl}-1H-benzoimidazole] as the molecule, how does the pKi read?
A: Its pKi is 7.54.

Q: How did the pKi turn out when `Cc1c(F)ccc2[nH]c(-c3ccc4c(c3)CCN4CCCC3CCN(C)CC3)nc12` [Example 96, 5-Fluoro-4-methyl-2-{1-[3-(1-methyl-piperidin-4-yl)-propyl]-2,3-dihydro-1H-indol-5-yl}-1H-benzoimidazole] was run?
A: Its pKi is 6.99.

Q: With `Cc1c(F)ccc2[nH]c(-c3cccc4c3c(Cl)cn4CCCCC3CCNCC3)nc12` [Example 133, 2-[3-Chloro-1-(4-piperidin-4-yl-butyl)-1H-indol-4-yl]-5-fluoro-4-methyl-1H-benzoimidazole] as the molecule, how does the pKi read?
A: The pKi was under 5.00.

Q: `Cc1ccc(-c2nc(-c3ccc4c(ncn4CCCC4CCN(C)CC4)c3C)[nH]c2-c2ccc(Cl)cc2)cc1` [Example 85] was tested. Which pKi did it give?
A: The pKi was 8.30.

Q: How did the pKi turn out when `Cc1c(F)ccc2[nH]c(-c3ccc4c(c3)ncn4CCCCC3CCN(C)CC3)nc12` [Example 44, 5-Fluoro-4-methyl-1′-[4-(1-methyl-piperidin-4-yl)-butyl]-1H,1′H-[2.5′]bibenzoimidazolyl] was run?
A: The pKi was 5.52.

Q: `CC(C)(C)c1ccc2[nH]c(-c3ccc4ccn(CCCCC5CCNCC5)c4c3)nc2c1` [Example 109, 5-tert-Butyl-2-[1-(4-piperidin-4-yl-butyl)-1H-indol-6-yl]-1H-benzoimidazole] was tested. Which pKi did it give?
A: The pKi was 5.57.

Q: How did the pKi turn out when `Cc1ccc2[nH]c(-c3cccc4c3c(Cl)cn4CCCCC3CCNCC3)nc2c1C` [Example 73, 2-[3-Chloro-1-(4-piperidin-4-yl-butyl)-1H-indol-4-yl]-4,5-dimethyl-1H-benzoimidazole] was run?
A: Its pKi is 5.77.

Reference: patent US8084466B2, “Bicyclic heteroaryl-substituted imidazoles as modulators of the histamine H4 receptor” (Janssen Pharmaceutica NV, priority 2007, dated 2011)
